Laboratory results from patent publication US7700637B2, “Organic compounds” (Novartis AG, priority 2003, dated 2010).

melting point [°C]	Structure (SMILES)
170 to 172	Cc1oc(-c2ccccc2)nc1COc1ccc(S(=O)(=O)Nc2cccc(Cl)c2C(=O)O)cc1 [Compd 4-1, 6-Chloro-2-[4-(5-methyl-2-phenyl-oxazol-4-ylmethoxy)-benzenesulfonylamino]-benzoic acid]
75 to 77	Cc1oc(-c2ccccc2)nc1COc1ccc(S(=O)(=O)Nc2cc(-c3ccccc3)ccc2C(=O)O)cc1 [Compd 4-2, 3-[4-(5-Methyl-2-phenyl-oxazol-4-ylmethoxy)-benzenesulfonylamino]-biphenyl-4-carboxylic acid]
191 to 193	Cc1oc(-c2ccc(C(F)(F)F)cc2)nc1COc1ccc(S(=O)(=O)Nc2cc(Cl)ccc2C(=O)O)cc1 [Compd 4-3, 4-Chloro-2-{4-[5-methyl-2-(4-trifluoromethyl-phenyl)-oxazol-4-ylmethoxy]-benzene-sulfonylamino}benzoic acid]
203 to 205	Cc1oc(-c2ccccc2)nc1COc1ccc(S(=O)(=O)Nc2cccc(F)c2C(=O)O)cc1 [Compd 4-4, 6-Fluoro-2-[4-(5-methyl-2-phenyl-oxazol-4-ylmethoxy)-benzenesulfonylamino]-benzoic acid]
223 to 225	Cc1oc(-c2ccc(F)cc2)nc1COc1ccc(S(=O)(=O)Nc2cc(Cl)ccc2C(=O)O)cc1 [Compd 4-5, 4-Chloro-2-{4-[2-(4-fluoro-phenyl)-5-methyl-oxazol-4-ylmethoxy]-benzenesulfonylamino}-benzoic acid]
197 to 198	Cc1oc(-c2ccccc2)nc1COc1ccc(S(=O)(=O)Nc2cccc(C(F)(F)F)c2C(=O)O)cc1 [Compd 4-6, 2-[4-(5-Methyl-2-phenyl-oxazol-4-ylmethoxy)-benzenesulfonylamino]-6-trifluoromethyl-benzoic acid]
98 to 100	Cc1oc(-c2ccccc2)nc1COc1ccc(S(=O)(=O)Nc2cc(Cl)ccc2C(=O)O)cc1 [Compd 4-7, 4-Chloro-2-[4-(5-methyl-2-phenyl-oxazol-4-ylmethoxy)-benzenesulfonylamino]-benzoic acid]
195	Cc1oc(-c2ccc(C(F)(F)F)cc2)nc1COc1ccc(S(=O)(=O)Nc2ccccc2C(=O)O)cc1 [Compd 4-8, 2-{4-[5-Methyl-2-(4-trifluoromethyl-phenyl)-oxazol-4-ylmethoxy]-benzenesulfonylamino}-benzoic acid]
212 to 214	Cc1oc(-c2ccccc2)nc1COc1ccc(S(=O)(=O)Nc2cc(F)ccc2C(=O)O)cc1 [Compd 4-10, 4-Fluoro-2-[4-(5-methyl-2-phenyl-oxazol-4-ylmethoxy)-benzenesulfonylamino]-benzoic acid]
195 to 198	Cc1oc(-c2ccccc2)nc1COc1ccc(S(=O)(=O)Nc2ccccc2C(=O)O)cc1 [Compd 4-11, 2-[4-(5-Methyl-2-phenyl-oxazol-4-ylmethoxy)-benzenesulfonylamino]-benzoic acid]
207 to 208	Cc1ccc(C(=O)O)c(NS(=O)(=O)c2ccc(OCc3nc(-c4ccccc4)oc3C)cc2)c1 [Compd 4-12, 4-Methyl-2-[4-(5-methyl-2-phenyl-oxazol-4-ylmethoxy)-benzenesulfonylamino]-benzoic acid]
213 to 215	Cc1oc(-c2ccccc2)nc1COc1ccc(S(=O)(=O)Nc2ccc(F)cc2C(=O)O)cc1 [Compd 4-14, 5-Fluoro-2-[4-(5-methyl-2-phenyl-oxazol-4-ylmethoxy)-benzenesulfonylamino]-benzoic acid]
207 to 208	Cc1oc(-c2ccccc2)nc1COc1ccc(S(=O)(=O)Nc2ccc(Cl)cc2C(=O)O)cc1 [Compd 4-15, 5-Chloro-2-[4-(5-methyl-2-phenyl-oxazol-4-ylmethoxy)-benzenesulfonylamino]-benzoic acid]
190 to 194	COc1ccc(NS(=O)(=O)c2ccc(OCc3nc(-c4ccccc4)oc3C)cc2)c(C(=O)O)c1 [Compd 4-16, 5-Methoxy-2-[4-(5-methyl-2-phenyl-oxazol-4-ylmethoxy)-benzenesulfonylamino]-benzoic acid]
185 to 187	Cc1ccc(NS(=O)(=O)c2ccc(OCc3nc(-c4ccccc4)oc3C)cc2)c(C(=O)O)c1 [Compd 4-17, 5-Methyl-2-[4-(5-methyl-2-phenyl-oxazol-4-ylmethoxy)-benzenesulfonylamino]-benzoic acid]
89 to 90	CC(=O)Nc1ccc(NS(=O)(=O)c2ccc(OCc3nc(-c4ccccc4)oc3C)cc2)c(C(=O)O)c1 [Compd 4-18, 5-Acetylamino-2-[4-(5-methyl-2-phenyl-oxazol-4-ylmethoxy)-benzenesulfonylamino]-benzoic acid]
177 to 179	Cc1oc(-c2ccccc2)nc1CCOc1ccc(S(=O)(=O)Nc2cc(-c3ccccc3)ccc2C(=O)O)cc1 [Compd 4-19, 3-{4-[2-(5-Methyl-2-phenyl-oxazol-4-yl)-ethoxy]-benzenesulfonylamino}-biphenyl-4-carboxylic acid]
59 to 60	COc1ccc(NS(=O)(=O)c2ccc(OCCc3nc(-c4ccccc4)oc3C)cc2)c(C(=O)O)c1OC [Compd 4-20, 2,3-Dimethoxy-6-{4-[2-(5-methyl-2-phenyl-oxazol-4-yl)-ethoxy]-benzenesulfonyl-amino}benzoic acid]

melting point [°C]	Structure (SMILES)
136 to 138	Cc1oc(-c2ccccc2)nc1CCOc1ccc(S(=O)(=O)Nc2ccccc2C(=O)O)cc1 [Compd 4-21, 2-{4-[2-(5-Methyl-2-phenyl-oxazol-4-yl)-ethoxy]-benzenesulfonylamino}-benzoic acid]
206 to 207	COc1cc(NS(=O)(=O)c2ccc(OCc3nc(-c4ccccc4)oc3C)cc2)c(C(=O)O)cc1OC [Compd 4-24, 4,5-Dimethoxy-2-[4-(5-methyl-2-phenyl-oxazol-4-ylmethoxy)-benzenesulfonylamino]-benzoic acid]
165 to 166	Cc1cc(C)c(NS(=O)(=O)c2ccc(OCc3nc(-c4ccccc4)oc3C)cc2)c(C(=O)O)c1 [Compd 4-25, 3,5-Dimethyl-2-[4-(5-methyl-2-phenyl-oxazol-4-ylmethoxy)-benzenesulfonylamino]-benzoic acid]
234 to 236	Cc1oc(-c2ccccc2)nc1COc1ccc(S(=O)(=O)Nc2cc3ccccc3cc2C(=O)O)cc1 [Compd 4-26, 3-[4-(5-Methyl-2-phenyl-oxazol-4-ylmethoxy)-benzenesulfonylamino]-naphthalene-2-carboxylic acid]
330 to 335	O=C(NCc1ccc(C(F)(F)F)cc1)c1ccc(S(=O)(=O)Nc2ccccc2C(=O)O)cc1 [Compd 6-1, 2-[4-(4-Trifluoromethyl-benzylcarbamoyl)-benzenesulfonylamino]-benzoic acid]
58 to 60	COc1cc(OC)c(C(=O)O)c(OCc2ccc(OCCc3nc(-c4ccccc4)oc3C)cc2)c1 [Compd 21-1, 2,4-Dimethoxy-6-{4-[2-(5-methyl-2-phenyl-oxazol-4-yl)-ethoxy]-benzyloxy}-benzoic acid]
182 to 183	COc1cc(OC)c(C(=O)O)c(OCc2ccc(OCc3nc(-c4ccccc4)oc3C)cc2)c1 [Compd 21-2, 2,4-Dimethoxy-6-[4-(5-methyl-2-phenyl-oxazol-4-ylmethoxy)-benzyloxy]-benzoic acid]
182 to 183	CCCOc1cc(C)c(C(=O)O)c(OCc2ccc(OCc3nc(-c4ccccc4)oc3C)cc2)c1 [Compd 21-3, 2-Methyl-6-[4-(5-methyl-2-phenyl-oxazol-4-ylmethoxy)-benzyloxy]-4-propoxy-benzoic acid]
162 to 163	Cc1oc(-c2ccccc2)nc1CCOc1ccc(COc2cc(C(F)(F)F)cc(C(F)(F)F)c2C(=O)O)cc1 [Compd 21-4, 2-{4-[2-(5-Methyl-2-phenyl-oxazol-4-yl)-ethoxy]-benzyloxy}-4,6-bis-trifluoromethyl-benzoic acid]
190 to 191	Cc1oc(-c2ccccc2)nc1COc1ccc(COc2cc(C(F)(F)F)cc(C(F)(F)F)c2C(=O)O)cc1 [Compd 21-5, 2-[4-(5-Methyl-2-phenyl-oxazol-4-ylmethoxy)-benzyloxy]-4,6-bis-trifluoromethyl-benzoic acid]
167 to 168	Cc1oc(-c2ccccc2)nc1COc1ccc(COc2cccc(F)c2C(=O)O)cc1 [Compd 21-6, 2-Fluoro-6-[4-(5-methyl-2-phenyl-oxazol-4-ylmethoxy)-benzyloxy]-benzoic acid]
157 to 158	Cc1cc(OC(C)C)cc(OCc2ccc(OCCc3nc(-c4ccccc4)oc3C)cc2)c1C(=O)O [Compd 21-7, 4-Isopropoxy-2-methyl-6-{4-[2-(5-methyl-2-phenyl-oxazol-4-yl)-ethoxy]-benzyloxy}-benzoic acid]
142 to 143	Cc1oc(-c2ccccc2)nc1CCOc1ccc(COc2cccc(F)c2C(=O)O)cc1 [Compd 21-8, 2-Fluoro-6-{4-[2-(5-methyl-2-phenyl-oxazol-4-yl)-ethoxy]-benzyloxy}-benzoic acid]
180 to 181	COc1cccc(OCc2ccc(OCc3nc(-c4ccccc4)oc3C)cc2)c1C(=O)O [Compd 21-9, 2-Methoxy-6-[4-(5-methyl-2-phenyl-oxazol-4-ylmethoxy)-benzyloxy]-benzoic acid]
183 to 184	COc1cccc(OCc2ccc(OCCc3nc(-c4ccccc4)oc3C)cc2)c1C(=O)O [Compd 21-10, 2-Methoxy-6-{4-[2-(5-methyl-2-phenyl-oxazolyl)-ethoxy]-benzyloxy}-benzoic acid]
155 to 156	Cc1oc(-c2ccccc2)nc1COc1ccc(COc2cc(Cl)ccc2C(=O)O)cc1 [Compd 21-11, 4-Chloro-2-[4-(5-methyl-2-phenyl-oxazol-4-ylmethoxy)-benzyloxy]-benzoic acid]
148 to 149	Cc1oc(-c2ccccc2)nc1CCOc1ccc(COc2cc(Cl)ccc2C(=O)O)cc1 [Compd 21-12, 4-Chloro-2-{4-[2-(5-methyl-2-phenyl-oxazol-4-yl)-ethoxy]-benzyloxy}benzoic acid]
151	Cc1oc(-c2ccccc2)nc1COCc1ccc(COc2cc(Cl)ccc2C(=O)O)cc1 [Compd 21-19, 4-Chloro-2-[4-(5-methyl-2-phenyl-oxazol-4-ylmethoxymethyl)-benzyloxy]-benzoic acid]
